Patent US10154667B2, “Broadleaf crop control with 6-arylpicoline carboxylic acids, 2-arylpyrimidine carboxylic acids, or salts or esters thereof” (Dow AgroSciences LLC, priority 2013, dated 2018)
Read-outs that look alike come from different tables or passages of the source.

Assays:
Type in all cases: in vivo, Glycine max
[1] = tested on: ROUNDUP READY soybeans (GLXMA); experiment: Field evaluation with various herbicides, 46 days after treatment; conditions: 46 Days After Treatment
From the text: (§1) The average percent visual control of ROUNDUP READY® soybeans (GLXMA) 46 days after treatment with various herbicides with standard formulation in comparison with compound of Formula (IV) at specified rates are provided in Table 6 below. The data was the result of conducting factorial replicated field trials (4 trials) by applying the compositions at a spray pressure of 300 kPa and a spray volume of 200 L/ha. The treated plots and control plots were visually rated blind at the specified dates after application. Ratings were based on a scale of 0-100%, as discussed above, wherein 0% indicates complete growth of the undesired vegetation and 100% indicates complete prevention/eradication of the undesired vegetation.

[2] = tested on: ROUNDUP READY soybeans (GLXMA); experiment: Field evaluation with various herbicides, 30 days after treatment; conditions: 30 Days After Treatment
From the text: as §1, with “The” for “The average percent visual control of ROUNDUP READY® soybeans (GLXMA) 46 days after treatment with various herbicides with standard formulation in comparison with compound of Formula (IV) at specified rates are provided in Table 6 below. The”, “(3” for “(4”

[3] = tested on: AAD12 GLXMA (HT variety soybean); experiment: Greenhouse evaluation of broadleaf volunteer crop control, AAD12 soybean; conditions: 2 to 3 leaf stage, after 21 days, 0 no injury, 100 complete kill
Method: (§2) Test plants were grown in METRO-MIX® 360 (SunGro Horticulture, Bellevue, Wash.) in 132.7 square centimeters (cm^2) plastic pots for 7-21 days in a greenhouse with an approximate 15 hour (h) photoperiod which was maintained at about 23-29° C. during the day and 22-28° C. during the night. Plants were grown to the 2 to 3 leaf stage prior to applications. Both conventional soybean crops varieties, Maverick and Resnick, and herbicide resistant (HT) varieties AAD12, AAD1, and ROUNDUP® ready soybean crops were treated.
(§3) A weighed amount, determined by the highest rate to be tested, of each test compound was placed in a 25 milliliter (mL) glass vial and was dissolved in 4 mL of a 97:3 v/v (volume/volume) mixture of acetone and dimethyl sulfoxide (DMSO), which will be referred to as General Purpose Solvent (GPS), to obtain concentrated stock solutions. […] The concentrated stock solutions obtained were diluted with 20 mL of an aqueous mixture containing water, GPS, isopropyl alcohol, ATPLUS® 411F crop oil concentrate, and TRITON® X-155 surfactant in a 46:42:12:1.0:0.02 v/v ratio to obtain spray solutions containing the highest application rates. Additional application rates were obtained by serial dilution of 12 mL of the high rate solution into a solution containing 2 mL of 97:3 v/v (volume/volume) mixture of acetone and dimethyl sulfoxide (DMSO) and 10 mL of an aqueous mixture containing water, GPS, isopropyl alcohol, ATPLUS® 411F crop oil concentrate, and TRITON® X-155 surfactant in a 46:42:12:1.0:0.02 v/v ratio to obtain 1/2X, 1/4X, 1/8X and 1/16X rates of the high rate (X). Compound requirements are based upon a 12 mL application volume at a rate of 187 L/ha. Formulated compounds were applied to the plant material with an overhead Mandel track sprayer equipped with 8002E nozzles calibrated to deliver 187 L/ha over an application area of 0.503 square meters (m^2) at a spray height of 18 inches (43 cm) above the average plant canopy height. Control plants were sprayed in the same manner with the solvent blank. The treated plants and control plants were placed in a greenhouse as described above and watered by sub-irrigation to prevent wash-off of the test compounds. After 21 days, the condition of the test plants as compared with that of the control plants was determined visually and scored on a scale of 0 to 100 percent where 0 corresponds to no injury and 100 corresponds to complete kill, and results are listed in Table 1 along with active ingredients and their respective formulations. Each score in Table 1 represents an average obtained from results of three representative experiments.

[4] = tested on: Maverick GLXMA (conventional soybean); experiment: Greenhouse evaluation of broadleaf volunteer crop control, Maverick soybean; conditions: Glycine max, 504 h, read-out: Average Percent Crop Control after Treatment, Maverick GLXMA
Method: as §2, §3
(§4) Additional formulations with different 6-arylpicolinates were tested in the greenhouse on Maverick and RoundUp-ready soybean crops using the procedure described above. Each score in Table 2 represents an average obtained from results of three representative experiments.

[5] = tested on: AAD1 GLXMA (HT variety soybean); experiment: Greenhouse evaluation of broadleaf volunteer crop control, AAD1 soybean; conditions: 2 to 3 leaf stage, after 21 days, 0 no injury, 100 complete kill
Method: as §2, §3

[6] = tested on: Resnick GLXMA (conventional soybean); experiment: Greenhouse evaluation of broadleaf volunteer crop control, Resnick soybean; conditions: 2 to 3 leaf stage, after 21 days, 0 no injury, 100 complete kill
Method: as §2, §3

[7] = tested on: RoundUp Ready GLXMA (HT variety soybean); experiment: Greenhouse evaluation of broadleaf volunteer crop control, RoundUp ready soybean; conditions: Glycine max, 504 h, greenhouse, 2 to 3 leaf stage, after 21 days, 0 no injury, 100 complete kill, read-out: Average Percent Crop Control after Treatment, RoundUp Ready GLXMA
Method: as §2, §3, §4

Row | Structure (SMILES) | Average Percent Crop Control after Treatment, AAD12 GLXMA ([3]; 1.1 g ae/ha) [%] | Average Percent Crop Control after Treatment, AAD12 GLXMA ([3]; 2.2 g ae/ha) [%] | Average Percent Crop Control after Treatment, AAD12 GLXMA ([3]; 4.4 g ae/ha) [%] | Average Percent Crop Control after Treatment, AAD12 GLXMA ([3]; 8.75 g ae/ha) [%] | Average Percent Crop Control after Treatment, AAD12 GLXMA ([3]; 17.5 g ae/ha) [%] | Average Percent Crop Control after Treatment, AAD1 GLXMA ([5]; 2.2 g ae/ha) [%] | Average Percent Crop Control after Treatment, AAD1 GLXMA ([5]; 4.4 g ae/ha) [%] | Average Percent Crop Control after Treatment, AAD1 GLXMA ([5]; 8.75 g ae/ha) [%] | Average Percent Crop Control after Treatment, AAD1 GLXMA ([5]; 17.5 g ae/ha) [%] | Average Percent Crop Control after Treatment, Resnick GLXMA ([6]; 1.1 g ae/ha) [%] | Average Percent Crop Control after Treatment, Resnick GLXMA ([6]; 2.2 g ae/ha) [%] | Average Percent Crop Control after Treatment, Resnick GLXMA ([6]; 4.4 g ae/ha) [%] | Average Percent Crop Control after Treatment, Resnick GLXMA ([6]; 8.75 g ae/ha) [%] | Average Percent Crop Control after Treatment, Resnick GLXMA ([6]; 17.5 g ae/ha) [%] | further results
1 | COc1nc(C)nc(NC(=O)NS(=O)(=O)c2cc(I)ccc2C(=O)O)n1 [Iodosulfuron] |  |  |  |  |  |  |  |  |  |  |  |  |  |  | % Crop Control ([1]; 3.5 g ai/Ha): 90%
2 | COc1nc(C)nc(=NC(=O)NS(=O)(=O)c2ccccc2C(=O)O)[nH]1 [Metsulfuron] |  |  |  |  |  |  |  |  |  |  |  |  |  |  | % Crop Control ([1]; 6 g ai/Ha): 98.3%; % Crop Control ([2]; 6 g ai/Ha + 1% J'Oil): 96%; % Crop Control ([2]; 6 g ai/Ha): 89.3%
3 | C[n+]1ccc(-c2cc[n+](C)cc2)cc1 [Paraquat] |  |  |  |  |  |  |  |  |  |  |  |  |  |  | % Crop Control ([1]; 300 g ai/Ha): 85%; % Crop Control ([2]; 300 g ai/Ha): 61.7%
4 | COc1cc(OC)n2nc(NS(=O)(=O)c3c(C(F)(F)F)ccnc3OC)nc2n1 [Pyroxsulam] |  |  |  |  |  |  |  |  |  |  |  |  |  |  | % Crop Control ([1]; 18 g ai/Ha): 98.3%
5 | COc1c(Cl)ccc(-c2nc(C(=O)O)c(Cl)c(N)c2F)c1F [drawing 11] | 85 | 93 | 100 | 100 | 100 | 87 | 100 | 100 | 100 | 83 | 92 | 100 | 100 | 100 | pest or weed control at 1.1 g/ha ([4]; 1.1 g ae/ha, greenhouse, 2 to 3 leaf stage, after 21 days, 0 no injury, 100 complete kill): 87%; pest or weed control at 2.2 g/ha ([4]; 2.2 g ae/ha, greenhouse, 2 to 3 leaf stage, after 21 days, 0 no injury, 100 complete kill): 95%; pest or weed control at 4.4 g/ha ([4]; 4.4 g ae/ha, greenhouse, 2 to 3 leaf stage, after 21 days, 0 no injury, 100 complete kill): 100%; pest or weed control at 8.75 g/ha ([4]; 8.75 g ae/ha, greenhouse, 2 to 3 leaf stage, after 21 days, 0 no injury, 100 complete kill): 100%; pest or weed control at 17.5 g/ha ([4]; 17.5 g ae/ha, greenhouse, 2 to 3 leaf stage, after 21 days, 0 no injury, 100 complete kill): 100%; pest or weed control at 2.2 g/ha ([7]; 2.2 g ae/ha): 83%; pest or weed control at 4.4 g/ha ([7]; 4.4 g ae/ha): 93%; pest or weed control at 8.75 g/ha ([7]; 8.75 g ae/ha): 100%; pest or weed control at 17.5 g/ha ([7]; 17.5 g ae/ha): 100%
6 | COc1c(Cl)ccc(-c2cc(N)c(Cl)c(C(=O)[O-])n2)c1F.[K+] [drawing 12] | 100 | 100 | 100 | 100 | 100 | 100 | 100 | 100 | 100 | 99 | 100 | 100 | 100 | 100 | pest or weed control at 1.1 g/ha [4]: 97%; Average Percent Crop Control after Treatment, AAD1 GLXMA ([5]; 1.1 g ae/ha): 100%
